Laboratory results from patent US4157392A, “Pharmacologically active substituted 1,2,4-triazines” (Diamond Shamrock Corporation, priority 1978, dated 1979).
Read-outs that look alike come from different tables or passages of the source.

Experiments:
[1] = test system: carrageenin-induced edema in the hind paw of a rat; test: Carrageenin Assay (carrageenin-induced edema, hind paw); format: in vivo, rat (male, Long Evans strain); details: Rattus norvegicus, 1 h before carrageenin, edema at 3 h, compared to phenylbutazone control values, read-out: % Reduction of Edema; for inhibition in vivo at 200 mg/kg: 200 mg/kg oral
Method: The procedure employed is a modification of the method of Winter et al, Proc. Soc. Exptl. Biol. Med. 111:544 (1962). The device used for measurement of the paw volume is an adaptation of the water displacement procedure described by Adamkiewicz et al, Can. J. Biochem. Physiol. 33:332 (1955). Test compounds were administered orally, one hour prior to the intraplantar injection of 0.05 ml. of sterile 1.0 percent solution of carrageenin into the left hind paw of male rats (Long Evans strain) weighing between about 130-200 grams. At peak swelling time (3 hours) the volume of edema was calculated by differential paw volumes.
Table I sets forth the results obtained (indicated as percent reduction of edema compared to phenylbutazone control values) at the indicated dosages for each of the identified compounds.

[2] = test system: phenylquinone writhing in mice; test: Phenylquinone Writhing Assay (analgesia); format: in vivo, mouse (Carworth CF1 male mice); details: Mus musculus, po, read-out: Phenylquinone Writhing Assay (% Control), percent analgesia; for responders at 100 mg/kg: 100 mg/kg oral; for responders at 30 mg/kg: 30 mg/kg oral; for responders at 50 mg/kg: 50 mg/kg oral; for responders at 25 mg/kg: 25 mg/kg oral
Method: The phenylquinone writhing test was employed to evaluate analgesic activity according to the following procedure:
Phenylquinone (phenyl-p-benzoquinone, No. 7104, Eastman Organic Chemicals) is made up as a 0.02% aqueous solution in 5% ethyl alcohol. Phenylquinone solutions are made up fresh twice daily. Standard reference agents and the test compounds are dissolved or suspended in a 0.25% methylcellulose solution. A control group consisting of ten mice (Carworth CF1 male mice) are administered the 0.02% phenylquinone solution at a dose of 0.25 ml/mouse. The mice are housed individually and observed closely for ten minutes for exhibition of writhing. The onset of writhing occurs within three minutes and 100% of the mice must writhe within ten minutes. Test compounds are administered orally to groups of ten mice. The volume given is 0.01 ml/gram of body weight. Activity can be studied at 15, 30, 60, and 120 minutes after oral administration. After the designated time interval of a dose group has elapsed, the mice are challenged with phenylquinone intraperitoneally. Complete blocking of the writhing syndrom for the ten minute observation period in any one mouse is considered a positive analgesic response for that mouse. Conversely, if any mouse writhes definitely once it is considered not to be protected. The number of mice not writhing in group multiplied by ten equals percent analgesia for that dose at that time interval.

[3] = test system: central nervous system activity in mice; test: Neuropharmacological Profile; format: in vivo, mouse (white male Carworth Farm Strain CF-1)
Method: The central nervous system activity of certain of the preferred compounds in accordance with the present invention were determined using the following neuropharmacological profile assay procedures.
White male mice of the Carworth Farm Strain (CF-1) weighing 18-22 grams were used in these determinations. […] Intraperitoneal injections were administered in logarithmic progression and sequentially. The dose levels employed routinely are 10, 30, 100, and 300 mg/kg, using four male mice at each dose level. Since this test was conducted in a sequential manner, the first dose administered was at 300 mg/kg. The mice were injected at this dose level and observed for gross changes produced by the drug, such as behavioral, neurological, autonomic, and toxic effects.
The animals were observed continuously for one hour and if no signs of pharmacological or toxicological activity were present at the end of the first hour, they were intermittently checked for activity every fifteen minutes thereafter for two consecutive hours. […] Subsequent dose levels below 300 mg/kg were not administered in this case. Alternatively, if demonstrable pharmacological changes occurred within the first three hours after administration of the drug at 300 mg/kg, the subsequent doses were administered and the animals observed for changes in overt behavior. The observation period begins immediately following the injection and the animals are then continuously observed for three hours and intermittently checked thereafter for forty-eight hours. The animals were observed and signs and symptoms of pharmacological activity were recorded continuously until no further symptoms developed and until the symptoms that had appeared were no longer present. […] It was very important that the animals were free to move about for evaluation of spacial orientation, alertness, and spontaneous motor activity. The animals were systematically observed and manipulated to measure the onset, peak effect, duration and character of drug action.
The major characteristics observed relative to central nervous system activity for the compounds indicated are summarized in the following Table IV.

[4] = 300,100,30 mg/kg intraperitoneal

| Structure (SMILES) | inhibition in vivo at 200 mg/kg [1] [%] | responders at 100 mg/kg ([2]; 0.5 h, 30 Min.) [%] | responders at 100 mg/kg ([2]; 0.25 h, 15 Min.) [%] | responders at 100 mg/kg ([2]; 1 h, 60 Min) [%] | other results |
| --- | --- | --- | --- | --- | --- |
| C=CCOc1nnc(C)c(C)n1 [Example 11, 3-allyloxy-5,6-dimethyl-1,2,4-triazine] | 63 | 30 | – | – | CNS Activity ([3]; 300,100 mg/kg intraperitoneal): Hypnotic |
| CSc1nncc(-c2cccc(C(F)(F)F)c2)n1 [Example 19, 3-methylthio-5-(3'-trifluoromethylphenyl)-1,2,4-triazine] | 51 | – | – | – | responders at 30 mg/kg ([2]; 0.5 h, 30 Min.): 20%; CNS Activity ([3]; 300,100,30,10,3 mg/kg intraperitoneal): Sedative |
| OCCNc1nncc(-c2ccccc2)n1 [Example 28, 3-B-hydroxyethyl amino-5-phenyl-1,2,4-triazine] | 43 | 10 | 30 | 10 | – |
| COc1nncc(-c2cccc3ccccc23)n1 [Example 29, 3-methoxy-5-(1'-naphthyl)-1,2,4-triazine] | 22 | – | 10 | – | responders at 30 mg/kg ([2]; 0.25 h, 15 Min.): 10%; responders at 50 mg/kg ([2]; 0.5 h, 30 Min.): 10% |
| CCCOc1nncc(-c2ccccc2)n1 [Example 31, 3-n-propoxy-5-phenyl-1,2,4-triazine] | 51 | – | 10 | – | – |
| COc1cc(-c2cnnc(SC)n2)ccc1O [Example 32, 3-methylthio-5-(3'-methoxy-4'-hydroxyphenyl)-1,2,4-triazine] | 5 | 10 | 30 | 10 | – |
| CSc1nncc(C23CC4CC(CC(C4)C2)C3)n1 [Example 34, 3-methylthio-5-(1'-adamantyl)-1,2,4-triazine] | 17 | 10 | 30 | – | – |
| CSc1nncc(-c2cc3ccccc3o2)n1 [Example 35, 3-methylthio-5-(2'-benzofuryl)-1,2,4-triazine] | 2 | 10 | 10 | 10 | – |
| CSc1nncc(C2CC2)n1 [Example 37, 3-methylthio-5-cyclopropyl-1,2,4-triazine] | 86 | – | 20 | – | – |
| COc1nncc(-c2ccc(OC)c(OC)c2)n1 [Example 38, 3-methoxy-5-(3',4'-dimethoxyphenyl)-1,2,4-triazine] | 52 | 20 | – | 10 | – |
| CSc1nncc(-c2c(C)cc(C)cc2C)n1 [Example 39, 3-methylthio-5-(2',4',6'-trimethylphenyl)-1,2,4-triazine] | 7 | – | 10 | 10 | – |
| CSc1nncc(-c2ccc(N3CCOCC3)cc2)n1 [Example 40, 3-methylthio-5-(4'-morpholinophenyl)-1,2,4-triazine] | 19 | 10 | 30 | – | – |
| CSc1nncc(-c2ccc(F)cc2F)n1 [Example 42, 3-methylthio-5-(2',4'-difluorophenyl)-1,2,4-triazine] | – | 10 | 20 | – | inhibition in vivo at 150 mg/kg ([1]; 150 mg/kg oral): 10% |
| CSc1nncc(-c2ccc(Br)cc2)n1 [Example 43, 3-methylthio-5-(4'-bromophenyl)-1,2,4-triazine] | 20 | 10 | 10 | 10 | – |
| COc1ccc(-c2cnnc(SC)n2)cc1 [Example 44, 3-methylthio-5-(4'-methoxyphenyl)-1,2,4-triazine] | 18 | 10 | 10 | 20 | – |
| COc1nnc(-c2ccccc2)c(-c2ccccc2)n1 [Example 48, 3-methoxy-5,6-diphenyl-1,2,4-triazine] | 17 | – | – | – | CNS Activity [3, 4]: Muscle Relaxant |
| COc1ccc(-c2nnc(N(C)CCO)nc2-c2ccc(OC)cc2)cc1 [Example 50, 3-(N-methyl-N-(B-hydroxyethyl)amino)-5,6-bis-(4'-methoxyphenyl)-1,2,4-triazine] | 67 | 100 | 70 | 80 | responders at 25 mg/kg ([2]; 0.25 h, 15 Min.): 30%; responders at 50 mg/kg ([2]; 0.25 h, 15 Min.): 60%; responders at 25 mg/kg ([2]; 0.5 h, 30 Min.): 40%; responders at 50 mg/kg ([2]; 0.5 h, 30 Min.): 50%; responders at 25 mg/kg ([2]; 1 h, 60 Min): 20%; responders at 50 mg/kg ([2]; 1 h, 60 Min): 40% |
| C[C@@H]1CC[C@H](C)N1c1nnc(-c2ccccc2)c(-c2ccccc2)n1 [Example 52, 3-(cis-2',5'-dimethylpyrrolidyl)-5,6-diphenyl-1,2,4-triazine] | 22 | 30 | – | 10 | – |
| c1ccc(Oc2nnc(-c3ccccc3)c(-c3ccccc3)n2)cc1 [Example 53, 3-phenoxy-5,6-diphenyl-1,2,4-triazine] | 7 | – | 20 | 10 | – |
| CSc1nnc(-c2ccc(Cl)cc2)c(-c2ccc(Cl)cc2)n1 [Example 54, 3-methylthio-5,6-bis(4'-chlorophenyl)-1,2,4-triazine] | 7 | – | 10 | – | – |
| CN(CCO)c1nnc(-c2ccccc2)c(-c2ccccc2)n1 [Example 55, 3-(N-methyl-N-B-hydroxyethylamino)-5,6-diphenyl-1,2,4-triazine] | 23 | – | 20 | – | – |
| CCCCOc1nccnn1 [Example 65, 3-n-butoxy-1,2,4-triazine] | – | – | – | – | responders at 50 mg/kg ([2]; 0.5 h, 30 Min.): 10%; CNS Activity [3, 4]: Antidepressant |
| CN(CCO)c1nncc(-c2ccccc2)n1 [Example 73] | – | – | 10 | – | CNS Activity ([3]; 300,100 mg/kg intraperitoneal): Hypnotic |
| CCC(=O)NNc1nncc(-c2ccc(Cl)cc2)n1 [Example 108, 3-propionylhydrazino-5-(4'-chlorophenyl)-1,2,4-triazine] | – | – | – | – | inhibition in vivo at 100 mg/kg ([1]; 100 mg/kg oral): 40%; responders at 25 mg/kg ([2]; 0.25 h, 15 Min.): 30%; responders at 25 mg/kg ([2]; 0.5 h, 30 Min.): 50%; responders at 25 mg/kg ([2]; 1 h, 60 Min): 50% |
